Measurements: US6429204B1, “Method of inhibiting cancer growth” (University of Miami, priority 1997, dated 2002)

How the values were obtained:
[1] = Blood levels after oral gavage of adult rats
Description: In the treatment of certain localized cancers, the degree of hydrophilicity of the non-antimicrobial tetracycline compound can be of lesser importance.

[2] = Solubility in aqueous systems; assay type: physicochemical
[3] = biological target: T1, Gelatinase B (Homo sapiens, UniProt P14780); test: Zymography with densitometry of C8161 conditioned medium, gelatinase B; assay type: cell-based; details: 50 μg/mL, 24 hr
T1 construct: endogenous in cells; host or cells: C8161
T1 sequence (P14780 94-707): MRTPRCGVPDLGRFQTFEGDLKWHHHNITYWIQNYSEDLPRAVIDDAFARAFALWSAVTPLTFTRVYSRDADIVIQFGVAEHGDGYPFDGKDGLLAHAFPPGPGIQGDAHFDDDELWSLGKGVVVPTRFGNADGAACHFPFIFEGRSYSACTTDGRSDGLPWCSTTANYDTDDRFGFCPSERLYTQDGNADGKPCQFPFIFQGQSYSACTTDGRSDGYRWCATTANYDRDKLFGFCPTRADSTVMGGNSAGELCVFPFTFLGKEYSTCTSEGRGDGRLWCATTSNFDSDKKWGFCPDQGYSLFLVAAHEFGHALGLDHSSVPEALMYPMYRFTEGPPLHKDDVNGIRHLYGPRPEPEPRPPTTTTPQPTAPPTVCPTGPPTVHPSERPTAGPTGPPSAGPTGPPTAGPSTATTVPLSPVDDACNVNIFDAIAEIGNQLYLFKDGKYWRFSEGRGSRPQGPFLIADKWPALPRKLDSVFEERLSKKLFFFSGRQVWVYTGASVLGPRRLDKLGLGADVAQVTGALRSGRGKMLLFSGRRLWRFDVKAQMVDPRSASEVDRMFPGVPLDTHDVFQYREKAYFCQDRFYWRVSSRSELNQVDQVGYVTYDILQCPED
Procedure: (§1) Six hundred thousand (6×10^5) C8161 cells were seeded per well in a 12-well dish coated with a laminin/collagen IV/gelatin matrix in DMEM plus Mito+ and 0.1% gentamicin sulfate. After approximately 1 hr incubation to allow the cells to attach, 50 μg/mL of either doxycycline or one of the other CMTs was added per well and the dish then placed in a 37° C. humidified 5% CO2 incubator. After 24 hr, the supernatants were removed and centrifuged to remove any cells or debris. One volume of Laemmli sample buffer minus reductant was added to two volumes of the medium, and this sample electrophoresed without prior heating or boiling on a 10% SDS-PAGE containing 0.1% gelatin (samples normalized based on the same number of cells per volume of medium per time of incubation). After electrophoresis, the gels were washed with gentle shaking at room temperature for 30 min in 50 mM Tris-HCl (pH 7.5) plus 2.5% TRITON® X100 plus 50 μg/mL of the corresponding CMT used in the original treatment. The gel was then placed in incubation buffer (50 mM Tris-Cl/10 mM CaCl2/150 mM NaCl/0.05% NaN3) also containing 50 μg/mL of the corresponding CMT, and incubated at 37° C. for 20-24 hr. The gels were stained with Coomassie BBR-250, then destained with 10% methanol/10% acetic acid in water until the wash remained clear. A photographic negative of the gel was digitized using a video camera and Snappy Video Snapshot system (Play Inc., Rancho Cordova, Calif.). An integrated density was determined for each of the cleared zones of proteolysis using the software ImagePC8α (freely available from the National Institutes of Health), and the corresponding changes in gelatinolytic activities reported compared to the control samples normalized to a value of 1.0.

[4] = test system: COLO 205 Cells; test: MTS cytotoxicity assay, COLO 205; details: two days
Procedure: (§2) A panel of chemically modified tetracycline compounds and doxycycline were tested for cytotoxicity against two carcinomas: COLO 205 (a human colon carcinoma-derived cell line) and the E-10 clone of MDA-MB-231 (a human breast carcinoma-derived cell line). Cytoxicity was measured using a conventional assay for viability with a tetrazolium salt (MTS). Cells were grown in media containing the CMTs at concentrations ranging from 5 μM to 100 μM for two days. The cells were then incubated with the MTS for several hours before removal of the supernatant medium for determination of formazan, which is generated only by the viable cells. Results are expressed as percent cytotoxicity, which is simply the percent decline in measured formazan concentration in the sampled medium.

[5] = test system: E-10 Cells; test: MTS cytotoxicity assay, E-10; details: two days
Procedure: as §2

[6] = test system: C8161 human melanoma cells; test: In vitro invasion assay (MICS), laminin/collagen IV/gelatin matrix-coated filter; assay type: cell-based; details: 3, 20 and 50 μg/mL; for Percent Inhibition of invasive potential: 48 hr
Procedure: The in vitro invasive potentials of the control (DMSO only) and chemically-modified tetracycline treated cells were measured using a modified Boyden chamber as previously described (Membrane Invasion Culture System, MICS). An intervening barrier consisting of a polycarbonate filter containing 10 μm pores (Osmonics, Livermore, Calif.) coated with a defined matrix of human laminin/collagen IV/gelatin (Sigma, St. Louis, Mo.) was used for these studies. […] Doxycycline or individual CMTs were then added to different wells of the chamber at 3, 20 or 50 μg/mL 2 hr post-seeding and daily during the assay. After 48 hr, the cells were removed from the lower wells and the number of invasive cells was determined and compared to the original number of cells seeded into the upper wells. Where appropriate, data were corrected for proliferation during the period of the in vitro assay.

[7] = test system: DU-145 and TSU-PR1 prostate cancer cell lines; test: Prostate cancer cell viability/proliferation (trypan blue, MTT); assay type: cell-based, human; details: exposure time not stated (24 hr or 48 hr)
Description: To determine the cytotoxicity of CMTs on prostate tumor cell lines, TSU-PR1 cells (and cells of other tumor cell lines) were exposed to various CMTs or to doxycycline for 24 hr or 48 hr in a complete medium. Cell viability (percent of live cells) was estimated by counting the cells following trypan blue staining. Cellular viability was also estimated by the tetrazolium dye reduction assay (MTT assay) (Lokeshwar et al. 1995b). Due to the aggressive proliferative capacity of cancer cells, it is assumed that viable cells are actively proliferating. Therefore, the measurement of viability was used as an estimate of proliferation. Results are expressed as Mean±SEM from three separate experiments.

[8] = test system: Dunning MAT LyLu cells; test: Cytotoxic effect on MAT LyLu cells (trypan blue); assay type: cell-based, rat; details: 24 hr or 48 hr exposure
Procedure: Cell viability was estimated by trypan blue staining following exposure to the drugs. The results of these studies are summarized in FIG. 4A (24 hours) and FIG. 4B (48 hr). Data are presented as Mean±SEM from three separate experiments.

[9] = test system: Dunning MAT LyLu cells; test: Matrigel invasion assay (Boyden chamber, MTT), MAT LyLu; assay type: cell-based, rat; details: MAT LyLu, 5 μg/mL, 48 hr
Procedure: In this method, 4×10^5 tumor cells were plated on the top chamber of the Boyden chemotaxis assay chambers (Costar Transwell plates). The bottom side of the chamber was a 12 μm-pore polycarbonate filter layered with 0.5 mm thick layer of Matrigel. The bottom well contained a chemoattractant, a serum-free culture-conditioned medium from FHS 733 cells, a line of human fetal lung fibroblasts (ATCC No. HTB-157). Cancer cells (4×10^5) were plated in the top wells of the plates. Doxycycline or CMTs were diluted in a serum-free medium to 5 μg/mL, and were added to both top and bottom chambers. […] After 48 hr incubation, MTT was added to both the top and bottom wells (0.5 mg/mL), and incubation was continued for 4 hr. Wells were then emptied, and the cells from the undersides of the filter were pooled with those in the bottom wells with a filter tip. The reduced MTT (formazan) from top and bottom wells was solubilized with DMSO overnight, and absorbance (O.D.) at 515 nm was measured. The ratio of the O.D. from the bottom wells to that of the total (i.e., O.D. of top plus bottom wells) was taken as the invasive potential. […] The MTT assay procedure also normalizes the coincident inhibition due to the cytotoxic effects of the agents under investigation. Results presented are from three independent experiments.

[10] = biological target: T2, Gelatinase A (Homo sapiens, UniProt P08253); test: Zymography with densitometry of C8161 conditioned medium, gelatinase A; assay type: cell-based; details: 50 μg/mL, 24 hr
T2 construct: endogenous in cells; host or cells: C8161
T2 sequence (P08253 110-660): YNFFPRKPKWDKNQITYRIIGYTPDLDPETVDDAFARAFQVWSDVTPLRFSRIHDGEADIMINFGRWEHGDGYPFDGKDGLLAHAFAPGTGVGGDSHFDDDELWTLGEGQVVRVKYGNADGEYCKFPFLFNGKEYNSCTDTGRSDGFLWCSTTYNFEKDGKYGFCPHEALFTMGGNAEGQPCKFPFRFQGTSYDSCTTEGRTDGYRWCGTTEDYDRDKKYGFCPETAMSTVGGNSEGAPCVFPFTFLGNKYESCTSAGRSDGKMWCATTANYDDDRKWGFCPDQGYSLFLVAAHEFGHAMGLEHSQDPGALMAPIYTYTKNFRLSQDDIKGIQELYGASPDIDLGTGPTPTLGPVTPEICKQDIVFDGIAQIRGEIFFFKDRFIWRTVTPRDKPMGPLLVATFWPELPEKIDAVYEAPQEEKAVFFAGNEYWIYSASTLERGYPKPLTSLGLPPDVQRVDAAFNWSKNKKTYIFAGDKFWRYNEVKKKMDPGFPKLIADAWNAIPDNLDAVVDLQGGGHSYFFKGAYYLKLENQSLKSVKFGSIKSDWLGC
Procedure: as §1

[11] = test system: C8161 cells; test: C8161 cell proliferation (doubling time); assay type: cell-based, human; details: 50 μg/mL
Procedure: Cell Culture and Maintenance: C8161 cells, a human melanoma cell line, were maintained in Dulbecco's modified Eagle's medium (DMEM; […] These cells were routinely screened for Mycoplasma contamination using the GenProbe Rapid Detection System (Fisher Scientific; Chicago, Ill.). Chemically Modified Tetracyclines: Fresh stock solutions of the chemically modified tetracycline compounds (2 mg/mL) were prepared for each experiment by hydrating in 2% dimethyl sulfoxide (DMSO)/water pH 10, then adjusting to pH 7.4 using 1.0 M HCl. […] Sigma Chem. Co.; control) or 50 μg/mL of doxycycline or the other CMTs (three wells on each plate per compound). […] The doubling time for C8161 cells in the presence of each compound was then determined and compared to the DMSO treated cells (control).

CN(C)C1C(=O)C(C#N)=C(O)C2(O)C(=O)C3=C(O)c4c(O)cccc4C(C)(O)C3CC12 (stereo not shown) [CMT-2, tetracyclinonitrile]
blood levels ([1]; rat, in vivo, po): no detectable blood levels
solubility in aqueous systems [2]: low solubility in aqueous systems
Gelatinase B, integrated density normalized to control 1.00 [3]: 1.51
percent cytotoxicity ([4]; 5 μM): 2.7%
percent cytotoxicity ([4]; 10 μM): 4.5%
percent cytotoxicity ([4]; 20 μM): 0%
percent cytotoxicity ([4]; 50 μM): 7%
percent cytotoxicity ([4]; 100 μM): 16.3%
percent cytotoxicity ([5]; 5 μM): 1.5%
percent cytotoxicity ([5]; 10 μM): 3.8%
percent cytotoxicity ([5]; 20 μM): 0.8%
percent cytotoxicity ([5]; 50 μM): 0%
percent cytotoxicity ([5]; 100 μM): 2.3%
Type of Inhibition [6]: non-dose
Percent Inhibition of invasive potential [6]: ˜10%
50% inhibition dose (IC50), cell proliferation [7]: 5.7 µg/mL
inhibition of cell proliferation (rank among tested drugs) [8]: most effective inhibitors of cell proliferation
inhibition of invasive/metastatic potential (Matrigel invasion) [9]: equally inhibited
Gelatinase A, integrated density normalized to control 1.00 [10]: 0.89

CC1(O)c2cccc(O)c2C(=O)C2=C(O)C3(O)C(=O)C(C(N)=O)=C(O)C(O)C3CC21 (stereo not shown) [CMT-6, 4-hydroxy-4-de(dimethylamino)tetracycline]
blood levels ([1]; adult rats, oral gavage): no detectable blood levels
Gelatinase B, integrated density normalized to control 1.00 [3]: 0.51
percent cytotoxicity ([4]; 5 μM): 1.7%
percent cytotoxicity ([4]; 10 μM): 0%
percent cytotoxicity ([4]; 20 μM): 0%
percent cytotoxicity ([4]; 50 μM): 0%
percent cytotoxicity ([4]; 100 μM): 22.2%
Doubling Time ([11]; on plastic, DMSO 22 hr): 24 h
increase of doubling time ([11]; versus DMSO): approximately 9%
percent cytotoxicity ([5]; 5 μM): 0%
percent cytotoxicity ([5]; 10 μM): 6%
percent cytotoxicity ([5]; 20 μM): 3%
percent cytotoxicity ([5]; 50 μM): 7.6%
percent cytotoxicity ([5]; 100 μM): 16.7%
Type of Inhibition [6]: dose dependent
Percent Inhibition of invasive potential [6]: 8-50%
50% inhibition dose (IC50), cell proliferation [7]: 120 µg/mL
Gelatinase A, integrated density normalized to control 1.00 [10]: 0.07
